Experimental data: patent publication US20250332178A1, “METHODS OF TREATING MYCOBACTERIAL INFECTIONS USING TETRACYCLINE COMPOUNDS” (priority 2018, published 2025)
Converted amounts (≈) assume the structure as drawn.

Tests used:
[1] = MIC by broth microdilution in CAMHB, clinical isolates; format: cell-based, Mycobacterium chelonae
[2] = test system: M. abscessus subsp. abscessus CIP 104536; assay: Time-kill kinetics assay; format: cell-based
Protocol: Briefly, M. abscessus cultures were exposed to antimicrobial drugs at 4-fold increasing concentrations for 7 days at 37° C. under shaking conditions at 96 rpm. […] The drug concentrations ranged from 0.063 to 256 mg/L for both compounds. […] At day 1, 3 and 7 during drug exposure, samples were collected, centrifuged at 14000 xg to avoid anti-NTM drug carry over, serially diluted (10-fold, 10^0-10^7) and subcultured onto solid medium. […] The lower limit of detection was 5 cfu/mL (log 0.7). All experiments were performed in duplicate. Time-kill curves, as well as concentration-effect curves were generated.

[3] = test system: M. abscessus subsp. abscessus CIP 104536; format: cell-based; details: at 4 mg/L, after 7 days of drug exposure; subculture plates 16 mg/L
[4] = Intra-pulmonary steady-state concentrations (plasma, ELF, alveolar cells) after multiple IV doses in healthy adult subjects; format: in vivo, human; details: model-computed
Protocol: The remaining 20 subjects received tigecycline as 1 intravenous dose of 100 mg administered as a 30 minute infusion at t=0, followed by 6 intravenous doses of 50 mg administered as 30 minute infusions at t=12, 24, 36, 48, 60, and 72 hours. A study completion visit was conducted on the day following the final test article dose. There was a final follow-up assessment 7 to 14 days following the subject's last dose of test article which may be completed by telephone contact or other interactive technology unless an examination was needed to evaluate adverse events or abnormalities noted at the study completion visit.
Plasma PK samples were collected pre-dose and at 0.5, 1, 1.5, 2, 3, 4, 6, 8, 12 and 24 hours post-dose on day 4. […] One BAL sample was collected from each subject on day 4. Subjects were randomized to one of the following collection times: 0.5, 1, 2, 4, 8, 12 or 24 hours post-dose.

[5] = daily; previously shown (Bax et al.); cited from earlier work
M. abscessus = details: strains of M. abscessus; Wallace et al.; cited from earlier work

CN(C)c1cc(NC(=O)CNC(C)(C)C)c(O)c2c1C[C@H]1C[C@H]3[C@H](N(C)C)C(O)=C(C(N)=O)C(=O)[C@@]3(O)C(O)=C1C2=O [Tigecycline, tigecycline]
MIC90 [1]: 0.125 µg/mL (≈ 0.213 µM)
MIC ([1]; isolate No. 1, MC 7323): 0.125 µg/mL (≈ 0.213 µM)
MIC ([1]; isolate No. 2, MC 7534): 0.03 µg/mL (≈ 0.0512 µM)
MIC ([1]; isolate No. 3, MC 7368): 0.03 µg/mL (≈ 0.0512 µM)
MIC ([1]; isolate No. 4, MC 7514): 0.06 µg/mL (≈ 0.102 µM)
MIC ([1]; isolate No. 5, MC 7584): 0.06 µg/mL (≈ 0.102 µM)
MIC ([1]; isolate No. 6, MC 7192): 0.03 µg/mL (≈ 0.0512 µM)
MIC ([1]; isolate No. 7, MC 7466): 0.03 µg/mL (≈ 0.0512 µM)
MIC ([1]; isolate No. 8, MC 7533): 0.125 µg/mL (≈ 0.213 µM)
MIC ([1]; isolate No. 9, MC 7579): 0.03 µg/mL (≈ 0.0512 µM)
MIC ([1]; isolate No. 10, MC 7614): 0.125 µg/mL (≈ 0.213 µM)
MIC ([1]; isolate No. 11, MC 7414): 0.06 µg/mL (≈ 0.102 µM)
MIC ([1]; isolate No. 12, MC 7313): 0.25 µg/mL (≈ 0.427 µM)
MIC ([1]; isolate No. 13, MC 7281): 0.5 µg/mL (≈ 0.854 µM)
MIC ([1]; isolate No. 14, MC 7328): 0.015 µg/mL (≈ 0.0256 µM)
MIC ([1]; isolate No. 15, MC 7294): 0.125 µg/mL (≈ 0.213 µM)
MIC ([1]; isolate No. 16, MC 14-S-03): 0.5 µg/mL (≈ 0.854 µM)
MIC ([1]; isolate No. 17, MC 14-S-04): 0.06 µg/mL (≈ 0.102 µM)
MIC ([1]; isolate No. 18, MC 14-S-05): 0.125 µg/mL (≈ 0.213 µM)
MIC ([1]; isolate No. 19, MC 14-S-06): 0.03 µg/mL (≈ 0.0512 µM)
MIC ([1]; isolate No. 20, MC 14-S-07): 0.06 µg/mL (≈ 0.102 µM)
MIC ([1]; isolate No. 21, MC 35757): 0.125 µg/mL (≈ 0.213 µM)
MIC ([1]; isolate No. 22, MC 7302): 0.25 µg/mL (≈ 0.427 µM)
concentration for 1 log mycobacterial killing ([2]; after 7 days of exposure): 2.7 mg/L
concentration for 2 log mycobacterial killing ([2]; after 7 days of exposure): 3.4 mg/L
concentration for stasis (concentration-effect curve) ([2]; after 7 days of exposure): 2.2 mg/L
concentrations showing mycobacterial killing ([2]; time-kill, up to 7 days exposure): ≥ 4 mg/L
selection of drug resistance above the spontaneous mutation frequency [3]: 0.6%
AUC ([4]; human, in vivo, compartment models, read-out: Total-drug AUC72-96, ELF (Median)): 2590 ng·h/mL
Kp ([4]; human, in vivo, read-out: Penetration Ratio: total-drug ELF AUC72-84 to free-drug plasma AUC72-84 (Median)): 1.87
Free-drug AUC72-96, Plasma (Median) ([4]; compartment models): 1380 ng·h/mL
decline in concentration [5]: 80%
in vitro activity (in words) (M. abscessus): good activity
